How the values were obtained:
human recombinant HDAC1 = molecular target: T1, human recombinant HDAC1 (Homo sapiens, UniProt Q13547); test: HDAC1 enzyme activity inhibition (HDAC1 Fluorimetric Drug Discovery Assay Kit, in vitro); type: biochemical; details: samples at 100, 1000 and 10000 nM
T1 construct: purchased Enzolifesciences BML-SE456
In short: (§1)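 Recombinant human HDAC1 or HDAC6 (0.3 μg) with Fluor de Lys-SIRT1 substrate at […], 60 min at 37 °C, then developer 30 min; fluorescence Ex 360/Em 460. Compounds at 100–10000 nM for HDAC1 and 0.1–1000 nM for HDAC6; IC50 calculated.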

human recombinant HDAC6 = molecular target: T2, human recombinant HDAC6 (Homo sapiens, UniProt Q9UBN7); test: HDAC6 enzyme activity inhibition (fluorimetric, in vitro); type: biochemical; details: samples at 0.1, 1, 10, 100 and 1000 nM
T2 construct: purchased Calbiochem 382180
T2 sequence (Q9UBN7 1-1215): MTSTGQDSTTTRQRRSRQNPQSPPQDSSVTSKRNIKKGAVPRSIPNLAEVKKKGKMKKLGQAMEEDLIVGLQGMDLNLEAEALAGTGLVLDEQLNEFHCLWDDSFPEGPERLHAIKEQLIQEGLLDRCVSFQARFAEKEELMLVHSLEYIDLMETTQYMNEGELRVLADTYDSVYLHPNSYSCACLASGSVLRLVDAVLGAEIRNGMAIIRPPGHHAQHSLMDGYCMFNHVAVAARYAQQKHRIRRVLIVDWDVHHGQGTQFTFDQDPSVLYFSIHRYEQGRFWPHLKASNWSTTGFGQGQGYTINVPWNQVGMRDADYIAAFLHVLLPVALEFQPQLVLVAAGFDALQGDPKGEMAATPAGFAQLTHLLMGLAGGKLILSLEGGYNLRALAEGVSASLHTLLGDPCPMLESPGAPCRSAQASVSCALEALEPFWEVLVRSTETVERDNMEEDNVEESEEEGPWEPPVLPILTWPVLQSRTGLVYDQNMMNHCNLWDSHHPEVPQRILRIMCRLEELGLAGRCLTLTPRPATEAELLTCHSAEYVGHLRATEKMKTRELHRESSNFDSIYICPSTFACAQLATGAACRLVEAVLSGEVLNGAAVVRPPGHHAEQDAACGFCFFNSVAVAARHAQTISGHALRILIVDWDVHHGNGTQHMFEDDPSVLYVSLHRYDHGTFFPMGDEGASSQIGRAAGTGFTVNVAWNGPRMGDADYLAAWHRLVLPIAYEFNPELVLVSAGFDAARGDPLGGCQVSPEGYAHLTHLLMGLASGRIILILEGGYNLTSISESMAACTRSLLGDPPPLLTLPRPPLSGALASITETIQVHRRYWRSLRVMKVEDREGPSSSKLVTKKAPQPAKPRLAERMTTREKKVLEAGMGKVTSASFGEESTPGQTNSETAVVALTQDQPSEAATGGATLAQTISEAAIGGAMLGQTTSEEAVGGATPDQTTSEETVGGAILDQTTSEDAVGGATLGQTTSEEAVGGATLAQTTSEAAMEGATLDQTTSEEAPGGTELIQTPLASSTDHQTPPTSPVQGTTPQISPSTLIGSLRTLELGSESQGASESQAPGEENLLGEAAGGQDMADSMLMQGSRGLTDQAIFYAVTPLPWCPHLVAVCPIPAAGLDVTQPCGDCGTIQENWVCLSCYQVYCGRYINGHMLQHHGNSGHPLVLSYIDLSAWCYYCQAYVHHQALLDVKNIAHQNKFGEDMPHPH
In short: as §1

T1 sequence (Q13547 whole entry): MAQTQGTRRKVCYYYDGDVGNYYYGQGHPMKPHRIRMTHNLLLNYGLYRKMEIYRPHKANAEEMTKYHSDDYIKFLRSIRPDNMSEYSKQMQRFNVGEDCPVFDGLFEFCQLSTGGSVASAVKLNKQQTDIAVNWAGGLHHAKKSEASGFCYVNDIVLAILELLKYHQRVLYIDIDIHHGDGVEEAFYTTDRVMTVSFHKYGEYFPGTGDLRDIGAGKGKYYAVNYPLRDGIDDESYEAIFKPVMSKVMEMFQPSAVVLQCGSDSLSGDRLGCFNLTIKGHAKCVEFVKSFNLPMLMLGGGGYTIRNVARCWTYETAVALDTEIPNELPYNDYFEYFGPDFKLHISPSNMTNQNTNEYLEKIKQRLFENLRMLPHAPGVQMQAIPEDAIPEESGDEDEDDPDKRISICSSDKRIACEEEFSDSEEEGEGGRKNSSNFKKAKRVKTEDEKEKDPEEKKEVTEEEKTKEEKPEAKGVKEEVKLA

Row | SMILES | IC50 (human recombinant HDAC1) | IC50 (human recombinant HDAC6)
1 | N=S1(=O)CCN(C(=O)N(Cc2cnc(-c3nnc(C(F)F)o3)cn2)c2cccc(F)c2)CC1 [Compound 81, N-[[5-[5-(difluoromethyl)-1,3,4-oxadiazol-2-yl]pyrazin-2-yl]methyl]-N-(3-fluorophenyl)-1-imino-1-oxo-1,4-thiazinan-4-carboxamide] | > 10000 nM | 241 nM
2 | CC1CN(C(=O)N(Cc2ccc(-c3nnc(C(F)F)o3)cc2F)c2ccccc2)CCS1(=N)=O (stereo not shown) [Compound 82, N-[[4-[5-(difluoromethyl)-1,3,4-oxadiazol-2-yl]-2-fluoro-phenyl]methyl]-1-imino-2-methyl-1-oxo-N-phenyl-1,4-thiazinan-4-carboxamide] | > 10000 nM | 93.1 nM
3 | N=S1(=O)CC(N2CC3(CN(C(=O)N(Cc4ccc(-c5nnc(C(F)F)o5)cc4F)c4ccccc4)C3)C2)C1 (stereo not shown) [Compound 83, N-[[4-[5-(difluoromethyl)-1,3,4-oxadiazol-2-yl]-2-fluoro-phenyl]methyl]-6-(1-imino-1-oxo-thiethan-3-yl)-N-phenyl-2,6-diazaspiro[3.3]heptan-2-carboxamide] | > 10000 nM | 71.3 nM
4 | N=S1(=O)CC(N2C[C@@H]3C[C@H]2CN3C(=O)N(Cc2ccc(-c3nnc(C(F)F)o3)cn2)c2ccccc2)C1 (stereo partly drawn) [Compound 84, (1S,4S)—N-[[5-[5-(difluoromethyl)-1,3,4-oxadiazol-2-yl]-2-pyridyl]methyl]-5-(1-imino-1-oxo-thiethan-3-yl)-N-phenyl-2,5-diazabicyclo[2.2.1]heptan-2-carboxamide] | > 10000 nM | 56 nM
5 | CC1CN(C(=O)N(Cc2ccc(-c3nnc(C(F)F)o3)cn2)c2ccccc2)CCS1(=N)=O (stereo not shown) [Compound 85, N-[[5-[5-(difluoromethyl)-1,3,4-oxadiazol-2-yl]-2-pyridyl]methyl]-1-imino-2-methyl-1-oxo-N-phenyl-1,4-thiazinan-4-carboxamide] | > 10000 nM | 74.6 nM

Other lines, results leading:

Row | IC50 (human recombinant HDAC1) | IC50 (human recombinant HDAC6) | SMILES
6 | > 10000 nM | 50.2 nM | N=S1(=O)CCN(S(=O)(=O)N(Cc2ncc(-c3nnc(C(F)F)o3)s2)c2ccccc2)CC1 [Compound 86, N-[[5-[5-(difluoromethyl)-1,3,4-oxadiazol-2-yl]thiazol-2-yl]methyl]-1-imino-1-oxo-N-phenyl-1,4-thiazinan-4-sulfonamide]
7 | > 10000 nM | 37.4 nM | N=S1(=O)CC(N2C[C@@H]3C[C@H]2CN3c2c(N(Cc3ccc(-c4nnc(C(F)F)o4)cn3)c3ccccc3)c(=O)c2=O)C1 (stereo partly drawn) [Compound 87, 3-[N-[[5-[5-(difluoromethyl)-1,3,4-oxadiazol-2-yl]-2-pyridyl]methyl]anilino]-4-[(1S,4S)-5-(1-imino-1-oxo-thiethane-3-yl)-2,5-diazabicyclo[2.2.1]heptan-2-yl]cyclobut-3-en-1,2-dione]
8 | > 10000 nM | 34.1 nM | N=S1(=O)CC(N2C[C@@H]3C[C@H]2CN3c2c(N(Cc3ccc(-c4nnc(C(F)F)o4)cc3F)c3ccccc3)c(=O)c2=O)C1 (stereo partly drawn) [Compound 89, 3-[N-[[4-[5-(difluoromethyl)-1,3,4-oxadiazol-2-yl]-2-fluoro-phenyl]methyl]anilino]-4-[(1S,4S)-5-(1-imino-1-oxo-thiethan-3-yl)-2,5-diazabicyclo[2.2.1]heptan-2-yl]cyclobut-3-en-1,2-dione]
9 | > 10000 nM | 47.3 nM | CS(=N)(=O)C1CN(C(=O)N(Cc2ccc(-c3nnc(C(F)F)o3)cn2)c2cccc(F)c2)C1 (stereo not shown) [Compound 90, N-[[5-[5-(difluoromethyl)-1,3,4-oxadiazol-2-yl]-2-pyridyl]methyl]-N-(3-fluorophenyl)-3-(methylsulfonimidoyl)azetidin-1-carboxamide]
10 | > 10000 nM | 46 nM | CS(=N)(=O)C1CN(C(=O)N(Cc2ccc(-c3nnc(C(F)F)o3)cc2F)c2cccc(F)c2)C1 (stereo not shown) [Compound 91, N-[[4-[5-(difluoromethyl)-1,3,4-oxadiazol-2-yl]-2-fluoro-phenyl]methyl]-N-(3-fluorophenyl)-3-(methylsulfonimidoyl)azetidin-1-carboxamide]
11 | > 10000 nM | 93.9 nM | N=S1(=O)CC2(CN(C(=O)N(Cc3ccc(-c4nnc(C(F)F)o4)cc3F)c3ccccc3)C2)C1 [Compound 92, N-[[4-[5-(difluoromethyl)-1,3,4-oxadiazol-2-yl]-2-fluoro-phenyl]methyl]-2-imino-2-oxo-N-phenyl-2lambda6-thia-6-azaspiro[3.3]heptan-6-carboxamide]

Source: US20260125370A1, “SULFOXIMINE COMPOUNDS AS HISTONE DEACETYLASE 6 INHIBITOR, AND PHARMACEUTICAL COMPOSITION COMPRISING THE SAME” (CHONG KUN DANG PHARMACEUTICAL CORP., priority 2022, published 2026)
